Reference: the supplement of paper PMC11208160

Assay: recombinant UMI read abundance after kanamycin selection (control-corrected) (log10(CPM+1)); higher = more efficient recombination; extreme values may be limits of the assay; sequences stand for … in AGTGCAGAGAAAATCGGCCAGTTTTCTCTGCCTGCAGTCCGCATGCCGTGGGACCCCTTGGGTTCTAACCTGTTGCCTAGATTTATGCAGCGGACTGCCTTTCTCCCAAAGTGATAAACCGG…AGGTTGGTTTCACT; site = the 11-nt donor
Procedure, shortened: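 Two replicates each of selected and unselected plating were used in this pooled Escherichia coli screen of donor and donor-binding-loop pairs for the IS621 bridge recombinase. Selection was with IPTG (0.07 mM) and kanamycin. Counts of recombinant UMIs, amplified across the donor–target junction, were converted to CPM, averaged, scaled by control-derived factors and reported as log10(CPM+1).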
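Also: IS621 bridge recombinase in Escherichia coli cells against a fixed T5 target plasmid.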

| Sequence | recombinant UMI read abundance (log10) |
| --- | --- |
| ATATCAACATGGACCGGTTTTCCCGGTAATCCGTATTTGTA (site ATATCAACTTA) | 1.61 |
| GTGCATGCATGGACCGGTTTTCCCGGTAATCCGTATTTGGT (site GTGCCTGCTAC) | 1.15 |
| GATTATACATGGACCGGTTTTCCCGGTAATCCGTATTTGCT (site GATTATCCTAG) | 0 |
| CCTAACGCATGGACCGGTTTTCCCGGTAATCCGTATTTGAT (site CCTAAAGCTAT) | 0 |
| AACTCAGCATGGACCGGTTTTCCCGGTAATCCGTATTTGGG (site AGCTCAGCTCC) | 0.00784 |
| CCGACCGCATGGACCGGTTTTCCCGGTAATCCGTATTTGTA (site CCGACCGCTTA) | 0.904 |
| GATTGGGCATGGACCGGTTTTCCCGGTAATCCGTATTTGAC (site GATTGGCCTGT) | 0 |
| TTACCTTCATGGACCGGTTTTCCCGGTAATCCGTATTTGTC (site TTACCTTCTGA) | 0.519 |
| TGCTAGGCATGGACCGGTTTTCCCGGTAATCCGTATTTGGT (site TGCAAGGCTAC) | 0 |
| TGTTCCCCATGGACCGGTTTTCCCGGTAATCCGTATTTGTA (site TGTTCCCCTTG) | 0.00318 |
| GAACTGGCATGGACCGGTTTTCCCGGTAATCCGTATTTGCG (site GAACTGGCTCG) | 0.715 |
| CTCGCTACATGGACCGGTTTTCCCGGTAATCCGTATTTGAG (site CTCTCTACTCT) | 0.139 |
| CGAGTATCATGGACCGGTTTTCCCGGTAATCCGTATTTGCA (site ACAGTATCTTG) | 2.08 |
| AGATCCTCATGGACCGGTTTTCCCGGTAATCCGTATTTGTT (site AGATCCTCTAA) | 2.08 |
| GTGCATGCATGGACCGGTTTTCCCGGTAATCCGTATTTGGT (site GTGCATGCTAC) | 0.978 |
| CGAACACCATGGACCGGTTTTCCCGGTAATCCGTATTTGCT (site CGAACACCTAG) | 0 |
| AGCCCAGCATGGACCGGTTTTCCCGGTAATCCGTATTTGGG (site AGCACAGCTCC) | 0.0163 |
| ACACTAACATGGACCGGTTTTCCCGGTAATCCGTATTTGTC (site ACACTAACTGA) | 2.12 |
| AATGTGTCATGGACCGGTTTTCCCGGTAATCCGTATTTGGC (site AATGTGTCTGG) | 0.957 |
| AGGTAGACATGGACCGGTTTTCCCGGTAATCCGTATTTGCA (site AGGCAGACTTG) | 2.47 |
| AGTGTGACATGGACCGGTTTTCCCGGTAATCCGTATTTGTA (site AGTGTGACTTA) | 1.91 |
| GCAGGTACATGGACCGGTTTTCCCGGTAATCCGTATTTGAC (site GAAGGTACTGT) | 0.00935 |
| TCACGAACATGGACCGGTTTTCCCGGTAATCCGTATTTGTC (site CCACGAACTGA) | 0.736 |
| ACATCAACATGGACCGGTTTTCCCGGTAATCCGTATTTGTG (site ACATCAACTCA) | 0.878 |
| CATCGCCCATGGACCGGTTTTCCCGGTAATCCGTATTTGGT (site CATCGCCCTAC) | 0.296 |

| Sequence | recombinant UMI read abundance (log10) |
| --- | --- |
| ACTAGAACATGGACCGGTTTTCCCGGTAATCCGTATTTGAG (site ACCAGAACTCT) | 1.23 |
| TAGGAATCATGGACCGGTTTTCCCGGTAATCCGTATTTGCG (site TAGGAATCTGG) | 2.08 |
| AGGGTGACATGGACCGGTTTTCCCGGTAATCCGTATTTGCA (site AGGAAGACTTG) | 0.666 |
| TAGCCTTCATGGACCGGTTTTCCCGGTAATCCGTATTTGGT (site TAGCCTTCTAG) | 0 |
| GCGATTCCATGGACCGGTTTTCCCGGTAATCCGTATTTGTC (site GCGATTCCTGA) | 1.78 |
| AATTATACATGGACCGGTTTTCCCGGTAATCCGTATTTGGA (site AATTATTCTTC) | 0.335 |
| CGTCCAACATGGACCGGTTTTCCCGGTAATCCGTATTTGTA (site TGTCCAACTTA) | 0.0409 |
| GAGACGACATGGACCGGTTTTCCCGGTAATCCGTATTTGTC (site GAGACGACTGA) | 1.94 |
| ACCCAAGCATGGACCGGTTTTCCCGGTAATCCGTATTTGAG (site AGCCAAGCTCT) | 0.021 |
| TGATAGGCATGGACCGGTTTTCCCGGTAATCCGTATTTGGT (site TGATAGGCTAC) | 0.902 |
| GGGGCACCATGGACCGGTTTTCCCGGTAATCCGTATTTGCA (site GGGGCACCTTA) | 0.011 |
| CGATTTACATGGACCGGTTTTCCCGGTAATCCGTATTTGCT (site CGATTTACTAG) | 1.76 |
| AACGATCCATGGACCGGTTTTCCCGGTAATCCGTATTTGTA (site AACGATCCTTA) | 1.42 |
| TACTAGGCATGGACCGGTTTTCCCGGTAATCCGTATTTGGT (site TTCTAGGCTAC) | 0.00516 |
| TCCTAGCCATGGACCGGTTTTCCCGGTAATCCGTATTTGCC (site TCCTAGCCTGG) | 0 |
| TCAAGTCCATGGACCGGTTTTCCCGGTAATCCGTATTTGTA (site TAAAGTCCTTA) | 0.314 |
| AGTCAAGCATGGACCGGTTTTCCCGGTAATCCGTATTTGAA (site AGTCAAGCTTT) | 1.39 |
| TGCCGGCCATGGACCGGTTTTCCCGGTAATCCGTATTTGCC (site TGCCGGCCTGG) | 0 |
| GGATAGACATGGACCGGTTTTCCCGGTAATCCGTATTTGCC (site GGATATACTGG) | 2.8 |
| CACCCCTCATGGACCGGTTTTCCCGGTAATCCGTATTTGCC (site CACCCCTCTGG) | 2.71 |
| GTGCATGCATGGACCGGTTTTCCCGGTAATCCGTATTTGGT (site ATGCATGCTAC) | 0.986 |
| TTGCTACCATGGACCGGTTTTCCCGGTAATCCGTATTTGCT (site GTGCTACCTAG) | 0 |
| TGGCCGGCATGGACCGGTTTTCCCGGTAATCCGTATTTGGC (site TGGTCGGCTGC) | 0.00844 |
| ATTGAGACATGGACCGGTTTTCCCGGTAATCCGTATTTGAT (site ATTGAGACTAG) | 0.528 |
| TGCCTTTCATGGACCGGTTTTCCCGGTAATCCGTATTTGAC (site AGCCTTTCTGT) | 0 |

| Sequence | recombinant UMI read abundance (log10) |
| --- | --- |
| AGGCAACCATGGACCGGTTTTCCCGGTAATCCGTATTTGGG (site AGGCAACCTCC) | 0.112 |
| GGCGGCGCATGGACCGGTTTTCCCGGTAATCCGTATTTGTA (site GGCGGCGCTTA) | 0.781 |
| GCCACGCCATGGACCGGTTTTCCCGGTAATCCGTATTTGTA (site GCCACGGCTTA) | 0.0146 |
| CGGGAACCATGGACCGGTTTTCCCGGTAATCCGTATTTGCG (site CGGGAACCTCG) | 0 |
| GAATGGACATGGACCGGTTTTCCCGGTAATCCGTATTTGAC (site GAATGGACTGT) | 2.81 |
| CGGACATCATGGACCGGTTTTCCCGGTAATCCGTATTTGCA (site CGGACATCTCG) | 0 |
| ACGTGTGCATGGACCGGTTTTCCCGGTAATCCGTATTTGGT (site ACGTGTGCTAC) | 1.99 |
| TGTACTTCATGGACCGGTTTTCCCGGTAATCCGTATTTGGT (site TGTACTTCTAC) | 1.38 |
| TGTTAGCCATGGACCGGTTTTCCCGGTAATCCGTATTTGAC (site TGTTAGCCTGT) | 0 |
| CGTTAAACATGGACCGGTTTTCCCGGTAATCCGTATTTGAG (site CGTTATACTCT) | 0.01 |
| GGCAAACCATGGACCGGTTTTCCCGGTAATCCGTATTTGGT (site GCCAAACCTAC) | 0 |
| CTTCTATCATGGACCGGTTTTCCCGGTAATCCGTATTTGGT (site CTTCTATCTAC) | 1.58 |
| ACAGTACCATGGACCGGTTTTCCCGGTAATCCGTATTTGCA (site ACAGTAGCTTG) | 0.138 |
| CGTTAGACATGGACCGGTTTTCCCGGTAATCCGTATTTGAA (site CGTTAGACTGT) | 0 |
| ACGAGAACATGGACCGGTTTTCCCGGTAATCCGTATTTGTT (site ACGAGAACTAA) | 2.8 |
| TAGGTTCCATGGACCGGTTTTCCCGGTAATCCGTATTTGCC (site TAGGTTCCTGG) | 1.32 |
| TAGAACACATGGACCGGTTTTCCCGGTAATCCGTATTTGTC (site TAGAACACTGA) | 2.34 |
| GTAGTGGCATGGACCGGTTTTCCCGGTAATCCGTATTTGGT (site GAAGTGGCTAC) | 0.458 |
| AAGGGCTCATGGACCGGTTTTCCCGGTAATCCGTATTTGGC (site AAGGGCTCTGC) | 3.63 |
| GGGACACCATGGACCGGTTTTCCCGGTAATCCGTATTTGCA (site GGGCCACCTTG) | 0 |
| GGCAATCCATGGACCGGTTTTCCCGGTAATCCGTATTTGAT (site GGCAATCCTCT) | 0.0105 |
| ATAATGCCATGGACCGGTTTTCCCGGTAATCCGTATTTGAC (site ATAAAGCCTGT) | 0.589 |
| AATTATGCATGGACCGGTTTTCCCGGTAATCCGTATTTGAA (site AATTATGCTTG) | 0 |
| ATAAGGCCATGGACCGGTTTTCCCGGTAATCCGTATTTGAT (site ATAAGGCCTCT) | 0.00711 |
| AATAAGACATGGACCGGTTTTCCCGGTAATCCGTATTTGCA (site AATAAGACTTG) | 2.17 |
